The results in this text go back to patent US6776984B1, “Induced regeneration and repair of damaged neurons and nerve axon myelin” (priority 1999, dated 2004).

The test system of this test is B6SJL-TgN(SOD1-G93A)1 Gur strain mice. As to the kind of experiment: Transgenic mouse model of familial amyotrophic lateral sclerosis (limb paralysis, survival). Type of test: in vivo. The source says:
B6SJL-TgN(SOD1-G93A)1 Gur strain mice were obtained from. The Jackson Laboratory, Bar Harbor, Me. The transgene in these mice carries a high copy number of a mutant allele human SOD1 containing the Gly93 →Ala (G93A) substitution (often referred to as G1H). Mice progressively become paralyzed in one or more limbs, with paralysis due to loss of motor neurons from the spinal cord. The mice are generally described in Gurney M E, Pu H, Chiu A Y, Dal Canto M C, Polchow C Y, Alexander D D, Caliendo J, Hentati A, Kwon Y W, Deng H X, Chen W, Zhai P, Sufit R L, Siddique T: Motor neuron degeneration in mice that express a human Cu,Zn superoxide dismutase mutation. Science 264:1772-1775 (1994), and use of these mice as a model of familial amyotrophic lateral sclerosis is described in Chiu A Y, Zhai P, Dal Canto M C, Peters T M, Kwon Y W, Prattis S M, Gurney M E: Age-dependent penetrance of disease in a transgenic mouse model of familial amyotrophic lateral sclerosis. Mol Cell Neurosci 6:349-362 (1995).
At 105 days following birth, mouse A began manifesting objective symptoms of limb paralysis. A protocol as described in Table 1 was followed.
The thrombopoietin was obtained from Rand D. Systems, Inc. (Minneapolis, Minn.) as carrier-free recombinant thrombopoietin and the thryrotropin was obtained from Ferring Pharmaceuticals; both were administered by intraperitoneal (i.p.) injection. Synthroid®, a form of levothyroxine, was obtained from Flint Pharmaceuticals in 100 μg tablets.
A litter mate of mouse A, referred to as mouse B, was administered a protocol as described in Table 2, with administration commencing prior to the onset of any objective symptoms.
A B6SJL-TgN(SOD1-G93A)1Gur strain mouse as described in Example 1 was obtained, referred to as mouse C. Mouse C was administered a protocol as described in Table 3, with administration commencing prior to the onset of any objective symptoms.

Where [1] appears, read: mouse A, Table 1 protocol, thrombopoietin i.p. days 107, 110, 113.

For thrombopoietin, the “objective symptoms observed at day 111” value (mouse A, symptomatic from day 105, after thrombopoietin 0.5 cc of 1 μg/cc i.p. on days 107 and 110) was “marked improvement”. The “objective symptoms observed on day 124” value (mouse A, Table 1 protocol) was “increasing front limb weakness”. Where the note is “mouse A, Table 1 protocol (thrombopoietin, thyrotropin releasing hormone, Synthroid) started after symptom onset”, this substance registered a day of death of 126 days. In addition, the “objective symptoms observed on day 122” value (mouse A, Table 1 protocol, Synthroid in drinking water from day 121) was “marked improvement in front limbs”. Further, under “mouse A, Table 1 protocol, after thrombopoietin plus thyrotropin releasing hormone i.p. on day 117”, the “objective symptoms observed by day 118” value is “decreased weakness”. For the same substance, under setting [1], the “objective symptoms observed at day 113” value is “shaking resumed” and the “objective symptoms observed by day 115” value is listed as “marked hind limb weakness”. Further, the “objective symptoms observed on day 120” value (mouse A, Table 1 protocol, thrombopoietin i.p. through day 119) is given as “increased mobility”. Moreover, where the note is “mouse B, Table 2 protocol”, the day of death was 132 days, the “delay of onset of objective signs versus litter mate mouse A” value worked out at 16 days and the “objective symptoms observed at day 129” value is given as “posterior limb paralysis”. Besides, the “day of first objective signs (slight posterior weakness)” value (mouse B, Table 2 protocol, thrombopoietin i.p. from day 87, Synthroid in drinking water from day 105, started before symptoms) was 121 days. In addition, the “day through which no objective signs of illness were observed” value (mouse C, Table 3 protocol, thrombopoietin i.p. days 80-88, Synthroid in drinking water from day 92, expected onset 91±14 days) was more than 110 days.
